One substance from paper PMC12528394, “Screening and evaluation of therapeutic candidates with vascular protective effects in zebrafish models of diabetic retinopathy” (Scientific Reports, 2025) can be followed below.

Common to all, as to format: in vivo
The test system of one experiment is zebrafish DR model. Put plainly: Zebrafish diabetic retinopathy model (130 mM glucose): survival and hyaloid-retinal vessel diameter. To be noted: 100 µg/ml, 3 to 6 dpf, n = 40 per group. How it is done:
On day 3 post-fertilization, zebrafish embryos with normal differentiation were treated with 130 mM glucose in a 24-well plate (5 embryos per well) to induce a diabetic retinopathy model. Peptides 1, 2, and 3 were administered at concentrations of 20, 100, 200, and 400 µg/ml. On day 6 post-fertilization, embryos were fixed with 4% paraformaldehyde and the hyaloid-retina vessels were isolated. Further experimental details can be found in previous studies.

Another experiment deals with Angiopoietin-1. Nature of the experiment: RT-PCR mRNA expression in zebrafish DR model. Conditions: 100 µg/ml, 130 mM glucose, eyes at 6 dpf, RT-PCR normalized to GAPDH, triplicate. How it is done: (§1) The total RNA were extracted from the eyes at 6 dpf using the mRNA kit (PureLink™ RNA Mini Kit, Ambion). The mRNA was measured with a NanoDrop spectrophotometer (Thermo Scientific, Madison, WI, USA) for quantitative analysis and a cDNA synthesis with a SuperScript VILO cDNA Synthesis Kit (Thermo Scientific, Carlsbad, CA, USA). The cDNA was amplified by PCR with zebrafish primer GAPDH, VEGF, Tie2 and Ang-1 with SYBR Green Master Mix (Thermo Scientific, Carlsbad, CA, USA). The mRNA was detected by ViiA7 Real-Time PCR system (Thermo Scientific, Carlsbad, CA, USA). The values were normalized to GAPDH expression. Samples were analyzed in triplicate.

For a further experiment, the system named is Tie2. Nature of the experiment: RT-PCR mRNA expression in zebrafish DR model. To be noted: 100 µg/ml, 130 mM glucose, eyes at 6 dpf, RT-PCR normalized to GAPDH, triplicate. How it is done:
as §1

The subject of the next experiment is VEGF. Put plainly: RT-PCR mRNA expression in zebrafish DR model. To be noted: 100 µg/ml, 130 mM glucose, eyes at 6 dpf, RT-PCR normalized to GAPDH, triplicate. How it is done:
as §1

As to aflibercept, in the experiment with zebrafish DR model, the “retinal vessel thickness relative to glucose-only group (in words)” value was “effectively reduced”. Besides, the “Angiopoietin-1 mRNA level versus high-glucose group (in words)” value in the experiment with Angiopoietin-1 was “partially restored”. For the same substance, the “Tie2 mRNA level versus high-glucose group (in words)” value in the experiment with Tie2 is listed as “partially restored”. For the same substance, the “VEGF mRNA level versus high-glucose group (in words)” value in the experiment on VEGF is listed as “significantly reduced”.
